Experimental data: US6372297B1, “Wood preservative oxathiazines” (Uniroyal Chemical Company, Inc., priority 1993, dated 2002)

Experiments:
[1] = system: mixed spore suspension: Aureobasidium pullulans, Aspergillus amstelodami, Ceratocystis pilifera, Cladosporium sp., Penicillium sp., Sclerophomas entoxylina …; experiment: Control of molds and sapstain fungi in mini-board test; set-up: key to Surface score of treated mini-boards, 3 week incubation, 1500 ppm / Surface score of treated mini-boards, 3 week incubation, 2500 ppm: 0: Free of fungal growth; 1: Traces of fungal growth; 2: Little fungal growth; 3: Moderate fungal growth; 4: Vigorous to maximum growth (all surfaces covered with fungal growth)
Source text: Representative compounds of this invention to be tested, were suspended in an aqueous solution containing 7.5% GENAPOL X 080™ (Hoechst-Celanese Corporation), and 20% propylene glycol monomethyl ether, to prepare the test solutions. […]
Deep frozen boards (300×50×10 mm) of freshly felled sapwood of Pinus sylvestrus (mini-boards) were thawed at room temperature. One half of each mini-board was immersed in a test solution for 20 seconds. The mini-boards were then sprayed with mixed spore suspension containing the following fungi:
Sclerophomas entoxylina, and
and stored in incubation boxes at 25° C. and at 100% relative humidity, for three weeks. For each compound tested, each concentration of test solution was applied to five different mini-boards.
The efficacy of the test compounds was determined by comparing the fungal growth on both the treated and untreated parts of the mini-boards.
The degree of infection was scored according to the following scale:
1=Traces of fungal growth
4=Vigorous to maximum growth (all surfaces covered with fungal growth)

[2] = system: mixed spore suspension of blue-stain fungus and molds; experiment: Activity against blue-stain fungi and molds in a mold cabinet test (BS3900: Part G6); set-up: key: 0: No growth; Trace of growth of up to 1% coverage of the test inoculated area; 2: Growth covering between 1 and 10% of the inoculated test area; Growth covering between 10 and 30% of the inoculated test area; 4: Growth covering between 30 and 70% of the inoculated test area; 5: Growth covering more than 70t of the inoculated test area
Protocol: Using the methods described in BS3900: Part G6: 1989, British Standard Methods of test for paints, “Assessment of resistance to fungal growth”, representative compounds of this invention were tested for activity against blue-stain fungus and molds in a mold cabinet test. In brief, sticks of Scots pine (Pinus sylvestris) measuring 75×100×10 mm, were painted, allowed to dry, and sterilized by […] (1.2 mRad). […] The sticks were then with each solution. The inoculation consisted of dipping the sticks in a mixed spore suspension, then placing them in a mold chamber and incubating them for 12 weeks. The surfaces were evaluated according the following score system: 0: No growth 1: […] 2: […] 3: […] 4. […] 5. Growth covering more than 70% of the inoculated test area.

[3] = system: blue-stain fungi and molds; experiment: Activity against blue-stain fungi and molds on a stick test on vermiculite (paint film); set-up: key to Surface score of wooden sticks treated with paint formulation, C. cladosporioides / Surface score of wooden sticks treated with paint formulation, P. purpurogenum / Surface score of wooden sticks treated with paint formulation, P. violacea / Surface score of wooden sticks treated with paint formulation, R rubra (y) / Surface score of wooden sticks treated with paint formulation, S. chartarum / Surface score of wooden sticks treated with paint formulation, A. versicolor / Surface score of wooden sticks treated with paint formulation, A. pullulans: 0: No growth; Trace of growth of up to 1% coverage of the test inoculated area; 2: Growth covering between 1 and 10% of the inoculated test area; Growth covering between 10 and 30% of the inoculated test area; 4: Growth covering between 30 and 70% of the inoculated test area; 5: Growth covering more than 70t of the inoculated test area; conditions: 12 weeks on vermiculite; for Surface score of wooden sticks treated with paint formulation, R rubra (y): R rubra (yeast)
Protocol: Beech sticks (73×18×2 mm) Fagus sylvatica were painted, allowed to dry, and sterilized by γ-radiation (1.2 mRad). […] The coated sticks prepared above were then dipped in a spore suspension of pure culture of each fungus. Seven sticks each were placed in autoclaved Petri dishes (200 mm in diameter, 30 mm in height) containing 300 ml of vermiculite and 120 ml of water, and incubated for 12 weeks. The surfaces of the sticks were then examined for the growth of fungus and were evaluated according to the following scoring system: 0: No growth 1: […] 2: […] 3: […] 4. […] 5. Growth covering more than 70t of the inoculated test area.

SMILES	Surface score of treated mini-boards, 3 week incubation, 1500 ppm [1]	Surface score of treated mini-boards, 6 week incubation, 1500 ppm [1]	Surface score of treated mini-boards, 3 week incubation, 2500 ppm [1]	Surface score of treated mini-boards, 6 week incubation, 2500 ppm [1]	Surface score in a paint formulation in a mold cabinet test, 6 weeks ([2]; 0.15% in water-based paint)	Surface score in a paint formulation in a mold cabinet test, 12 weeks ([2]; 0.15% in water-based paint)	Surface score in a paint formulation in a mold cabinet test, 6 weeks ([2]; 0.3% in water-based paint)	Surface score in a paint formulation in a mold cabinet test, 12 weeks ([2]; 0.3% in water-based paint)	Surface score of wooden sticks treated with paint formulation, A. pullulans ([3]; 0.15% a.i. in paint)	Surface score of wooden sticks treated with paint formulation, A. pullulans ([3]; 0.3% a.i. in paint)	Surface score of wooden sticks treated with paint formulation, A. versicolor ([3]; 0.15% a.i. in paint)	Surface score of wooden sticks treated with paint formulation, A. versicolor ([3]; 0.3% a.i. in paint)	Surface score of wooden sticks treated with paint formulation, C. cladosporioides ([3]; 0.15% a.i. in paint)	Surface score of wooden sticks treated with paint formulation, C. cladosporioides ([3]; 0.3% a.i. in paint)	Surface score of wooden sticks treated with paint formulation, P. purpurogenum ([3]; 0.15% a.i. in paint)	Surface score of wooden sticks treated with paint formulation, P. purpurogenum ([3]; 0.3% a.i. in paint)	Surface score of wooden sticks treated with paint formulation, P. violacea ([3]; 0.15% a.i. in paint)	Surface score of wooden sticks treated with paint formulation, P. violacea ([3]; 0.3% a.i. in paint)	Surface score of wooden sticks treated with paint formulation, R rubra (y) ([3]; 0.15% a.i. in paint)	Surface score of wooden sticks treated with paint formulation, R rubra (y) ([3]; 0.3% a.i. in paint)	also measured
Cc1ccsc1C1=NOCCS1(=O)=O [Compound 37]	0	0.8	0	0.4	4.0	5.0	0	0	3 (Growth covering between 10 and 30% of the inoculated test area)	2 (Growth covering between 1 and 10% of the inoculated test area)	2 (Growth covering between 1 and 10% of the inoculated test area)	1 (Trace of growth of up to 1% coverage of the test inoculated area)	3 (Growth covering between 10 and 30% of the inoculated test area)	0	3 (Growth covering between 10 and 30% of the inoculated test area)	1 (Trace of growth of up to 1% coverage of the test inoculated area)	5 (Growth covering more than 70t of the inoculated test area)	4 (Growth covering between 30 and 70% of the inoculated test area)	4 (Growth covering between 30 and 70% of the inoculated test area)	3 (Growth covering between 10 and 30% of the inoculated test area)	Surface score of wooden sticks treated with paint formulation, S. chartarum ([3]; 0.15% a.i. in paint): 1 (Trace of growth of up to 1% coverage of the test inoculated area); Surface score of wooden sticks treated with paint formulation, S. chartarum ([3]; 0.3% a.i. in paint): 0; Surface score of wooden sticks treated with paint formulation, U. atrum ([3]; 0.15% a.i. in paint): 4 (Growth covering between 30 and 70% of the inoculated test area); Surface score of wooden sticks treated with paint formulation, U. atrum ([3]; 0.3% a.i. in paint): 3 (Growth covering between 10 and 30% of the inoculated test area)
O=S1(=O)CCON=C1c1ccc(Br)s1 [Compound 38]	0.6	2.0	0.4	2.8	2.5	4.5	2.5	4.0	2 (Growth covering between 1 and 10% of the inoculated test area)	0	1 (Trace of growth of up to 1% coverage of the test inoculated area)	0	2 (Growth covering between 1 and 10% of the inoculated test area)	0	3 (Growth covering between 10 and 30% of the inoculated test area)	3 (Growth covering between 10 and 30% of the inoculated test area)	4 (Growth covering between 30 and 70% of the inoculated test area)	4 (Growth covering between 30 and 70% of the inoculated test area)	3 (Growth covering between 10 and 30% of the inoculated test area)	0	Surface score of wooden sticks treated with paint formulation, S. chartarum ([3]; 0.15% a.i. in paint): 5 (Growth covering more than 70t of the inoculated test area); Surface score of wooden sticks treated with paint formulation, S. chartarum ([3]; 0.3% a.i. in paint): 2 (Growth covering between 1 and 10% of the inoculated test area); Surface score of wooden sticks treated with paint formulation, U. atrum ([3]; 0.15% a.i. in paint): 4 (Growth covering between 30 and 70% of the inoculated test area); Surface score of wooden sticks treated with paint formulation, U. atrum ([3]; 0.3% a.i. in paint): 3 (Growth covering between 10 and 30% of the inoculated test area)
[O-][S+]1CCON=C1c1cc(Br)cs1 (stereo not drawn) [Compound 41]	0.6	2.4	0.2	1.6	0	2.0	0.5	3.0	0	0	0	0	0	0	2 (Growth covering between 1 and 10% of the inoculated test area)	1 (Trace of growth of up to 1% coverage of the test inoculated area)	4 (Growth covering between 30 and 70% of the inoculated test area)	3 (Growth covering between 10 and 30% of the inoculated test area)	3 (Growth covering between 10 and 30% of the inoculated test area)	0	Surface score of wooden sticks treated with paint formulation, S. chartarum ([3]; 0.15% a.i. in paint): 4 (Growth covering between 30 and 70% of the inoculated test area); Surface score of wooden sticks treated with paint formulation, S. chartarum ([3]; 0.3% a.i. in paint): 0; Surface score of wooden sticks treated with paint formulation, U. atrum ([3]; 0.15% a.i. in paint): 3 (Growth covering between 10 and 30% of the inoculated test area); Surface score of wooden sticks treated with paint formulation, U. atrum ([3]; 0.3% a.i. in paint): 1 (Trace of growth of up to 1% coverage of the test inoculated area)
